Test results taken from ChEMBL document CHEMBL1909046, “DrugMatrix in vitro pharmacology data”.

Legend:
[1] = DRUGMATRIX: Sigma2 radioligand binding (ligand: [3H] Ifenprodil); assay type: cell membranes, Rattus norvegicus, Wistar, Brain, Membrane; conditions: Not Active = under 50% inhibition at 10 µM
[2] = biological target: Beta-2 adrenergic receptor (Homo sapiens, UniProt P07550); assay: DRUGMATRIX: Adrenergic beta2 radioligand binding (ligand: [3H] CGP-12177); assay type: cell membranes, Membrane; conditions: cho; Not Active = under 50% inhibition at 10 µM
Beta-2 adrenergic receptor, sequence (P07550 whole entry): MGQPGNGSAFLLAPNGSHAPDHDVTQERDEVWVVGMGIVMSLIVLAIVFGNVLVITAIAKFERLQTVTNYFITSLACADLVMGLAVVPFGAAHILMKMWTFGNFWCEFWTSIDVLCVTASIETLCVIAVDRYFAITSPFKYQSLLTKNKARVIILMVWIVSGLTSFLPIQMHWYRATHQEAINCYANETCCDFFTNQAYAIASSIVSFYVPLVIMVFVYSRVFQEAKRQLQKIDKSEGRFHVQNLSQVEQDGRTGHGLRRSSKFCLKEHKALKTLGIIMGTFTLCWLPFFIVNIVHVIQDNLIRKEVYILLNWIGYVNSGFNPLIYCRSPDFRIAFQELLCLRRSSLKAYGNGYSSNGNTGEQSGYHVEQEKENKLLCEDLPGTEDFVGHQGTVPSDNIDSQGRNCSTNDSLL

[3] = DRUGMATRIX: Potassium Channel [KATP] radioligand binding (ligand: [3H] Glyburide); assay type: cell membranes, Membrane; conditions: hit-t15, Not Active = under 50% inhibition at 10 µM
[4] = biological target: Voltage-gated inwardly rectifying potassium channel KCNH2 (Homo sapiens, UniProt Q12809); conditions: hek293; further: in other assays of this panel Not Active means under 50% inhibition at 10 µM
Voltage-gated inwardly rectifying potassium channel KCNH2, sequence (Q12809 whole entry): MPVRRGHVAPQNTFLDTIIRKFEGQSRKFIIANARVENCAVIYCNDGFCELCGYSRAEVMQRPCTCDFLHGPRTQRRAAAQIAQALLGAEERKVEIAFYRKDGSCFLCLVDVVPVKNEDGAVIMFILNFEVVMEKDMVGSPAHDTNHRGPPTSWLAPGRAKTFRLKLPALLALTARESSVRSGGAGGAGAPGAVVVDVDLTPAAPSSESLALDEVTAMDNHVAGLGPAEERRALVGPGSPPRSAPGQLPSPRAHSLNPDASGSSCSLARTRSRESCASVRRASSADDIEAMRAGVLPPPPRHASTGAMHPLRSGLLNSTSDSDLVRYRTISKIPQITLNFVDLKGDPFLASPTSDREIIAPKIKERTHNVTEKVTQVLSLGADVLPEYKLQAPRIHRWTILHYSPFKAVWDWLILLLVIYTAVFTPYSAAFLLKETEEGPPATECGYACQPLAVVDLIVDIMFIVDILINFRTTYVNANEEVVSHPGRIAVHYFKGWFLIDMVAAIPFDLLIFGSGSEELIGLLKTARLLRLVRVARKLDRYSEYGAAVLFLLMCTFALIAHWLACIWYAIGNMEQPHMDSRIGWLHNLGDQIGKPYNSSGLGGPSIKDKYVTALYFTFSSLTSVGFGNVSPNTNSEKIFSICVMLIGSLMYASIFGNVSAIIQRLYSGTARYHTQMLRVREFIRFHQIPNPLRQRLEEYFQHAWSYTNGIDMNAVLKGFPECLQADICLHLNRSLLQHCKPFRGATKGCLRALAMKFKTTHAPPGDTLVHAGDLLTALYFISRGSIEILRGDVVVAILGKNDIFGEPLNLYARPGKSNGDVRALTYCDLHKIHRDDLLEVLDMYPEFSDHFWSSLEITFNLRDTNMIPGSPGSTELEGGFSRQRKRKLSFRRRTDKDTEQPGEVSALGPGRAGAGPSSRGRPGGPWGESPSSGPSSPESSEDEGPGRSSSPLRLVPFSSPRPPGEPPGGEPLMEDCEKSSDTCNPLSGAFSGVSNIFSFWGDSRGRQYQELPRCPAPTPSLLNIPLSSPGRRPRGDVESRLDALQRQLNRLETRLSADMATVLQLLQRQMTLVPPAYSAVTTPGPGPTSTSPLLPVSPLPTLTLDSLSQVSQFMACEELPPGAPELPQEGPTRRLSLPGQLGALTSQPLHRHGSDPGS

[5] = DRUGMATRIX: Imidazoline I2, Central radioligand binding (ligand: [3H] Idazoxan); assay type: cell membranes, Rattus norvegicus, Wistar, Cerebral cortex, Membrane; conditions: Not Active = under 50% inhibition at 10 µM
Nitric oxide synthase 1 = Nitric oxide synthase 1 (Rattus norvegicus, UniProt P29476); assay type: tissue-based, Cerebellum; further: in other assays of this panel Not Active means under 50% inhibition at 10 µM
Nitric oxide synthase 1, sequence (P29476 whole entry): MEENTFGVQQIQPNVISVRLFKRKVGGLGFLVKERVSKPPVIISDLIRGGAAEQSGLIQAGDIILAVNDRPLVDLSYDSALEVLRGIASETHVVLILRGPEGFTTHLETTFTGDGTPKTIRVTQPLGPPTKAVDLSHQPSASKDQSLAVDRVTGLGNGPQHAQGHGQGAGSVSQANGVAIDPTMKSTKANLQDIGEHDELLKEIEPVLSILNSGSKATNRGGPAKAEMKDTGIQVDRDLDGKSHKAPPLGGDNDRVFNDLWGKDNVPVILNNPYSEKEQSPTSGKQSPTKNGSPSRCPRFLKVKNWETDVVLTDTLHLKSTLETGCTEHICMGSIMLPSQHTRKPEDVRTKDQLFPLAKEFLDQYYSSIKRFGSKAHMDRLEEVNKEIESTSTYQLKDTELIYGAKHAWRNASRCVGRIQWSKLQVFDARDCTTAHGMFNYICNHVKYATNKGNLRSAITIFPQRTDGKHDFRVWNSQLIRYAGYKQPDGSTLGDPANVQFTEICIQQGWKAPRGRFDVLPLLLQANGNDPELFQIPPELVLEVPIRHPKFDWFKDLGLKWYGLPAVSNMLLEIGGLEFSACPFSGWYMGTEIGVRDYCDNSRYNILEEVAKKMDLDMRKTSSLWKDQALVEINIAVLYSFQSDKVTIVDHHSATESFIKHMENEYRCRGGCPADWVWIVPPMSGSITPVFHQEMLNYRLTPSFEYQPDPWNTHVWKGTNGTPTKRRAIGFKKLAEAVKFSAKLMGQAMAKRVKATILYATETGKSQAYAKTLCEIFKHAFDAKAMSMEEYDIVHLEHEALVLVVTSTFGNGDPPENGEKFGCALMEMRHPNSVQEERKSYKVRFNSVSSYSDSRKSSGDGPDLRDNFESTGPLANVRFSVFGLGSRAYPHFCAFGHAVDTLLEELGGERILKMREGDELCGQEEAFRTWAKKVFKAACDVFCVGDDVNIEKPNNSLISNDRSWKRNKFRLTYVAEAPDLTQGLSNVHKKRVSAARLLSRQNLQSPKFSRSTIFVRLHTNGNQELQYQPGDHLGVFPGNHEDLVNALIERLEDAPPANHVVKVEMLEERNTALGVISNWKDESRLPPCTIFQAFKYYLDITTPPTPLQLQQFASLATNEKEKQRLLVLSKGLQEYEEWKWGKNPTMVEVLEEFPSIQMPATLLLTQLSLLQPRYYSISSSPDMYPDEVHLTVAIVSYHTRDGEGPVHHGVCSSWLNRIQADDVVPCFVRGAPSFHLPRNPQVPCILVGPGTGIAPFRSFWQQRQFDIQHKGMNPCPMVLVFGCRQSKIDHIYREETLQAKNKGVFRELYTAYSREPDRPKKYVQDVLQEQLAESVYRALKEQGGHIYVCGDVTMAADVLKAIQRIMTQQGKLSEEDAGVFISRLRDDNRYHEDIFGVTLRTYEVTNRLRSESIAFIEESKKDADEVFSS

Insulin receptor = Insulin receptor (Rattus norvegicus, UniProt P15127); assay type: cell membranes, Wistar, Liver, Membrane; further: in other assays of this panel Not Active means under 50% inhibition at 10 µM
Insulin receptor, sequence (P15127 27-759 limits assumed): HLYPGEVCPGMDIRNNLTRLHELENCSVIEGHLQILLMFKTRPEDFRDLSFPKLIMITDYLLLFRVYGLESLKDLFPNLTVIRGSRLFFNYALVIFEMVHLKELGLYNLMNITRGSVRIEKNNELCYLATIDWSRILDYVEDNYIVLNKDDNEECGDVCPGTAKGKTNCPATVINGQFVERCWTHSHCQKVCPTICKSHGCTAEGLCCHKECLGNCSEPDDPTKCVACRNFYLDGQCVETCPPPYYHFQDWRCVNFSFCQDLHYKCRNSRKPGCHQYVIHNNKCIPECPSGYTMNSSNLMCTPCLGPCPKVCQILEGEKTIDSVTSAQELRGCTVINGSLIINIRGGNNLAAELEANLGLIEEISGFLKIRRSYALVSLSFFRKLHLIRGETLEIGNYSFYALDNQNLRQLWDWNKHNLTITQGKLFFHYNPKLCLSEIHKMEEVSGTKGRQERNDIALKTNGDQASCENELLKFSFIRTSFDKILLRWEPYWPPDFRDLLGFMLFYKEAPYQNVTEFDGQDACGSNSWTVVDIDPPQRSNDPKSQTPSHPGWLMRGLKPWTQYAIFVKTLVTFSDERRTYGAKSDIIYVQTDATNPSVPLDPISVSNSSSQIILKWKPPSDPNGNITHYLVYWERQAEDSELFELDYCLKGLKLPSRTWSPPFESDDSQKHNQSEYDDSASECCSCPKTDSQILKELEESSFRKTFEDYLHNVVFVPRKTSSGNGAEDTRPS
Insulin receptor, sequence (P15127 764-1383 limits assumed): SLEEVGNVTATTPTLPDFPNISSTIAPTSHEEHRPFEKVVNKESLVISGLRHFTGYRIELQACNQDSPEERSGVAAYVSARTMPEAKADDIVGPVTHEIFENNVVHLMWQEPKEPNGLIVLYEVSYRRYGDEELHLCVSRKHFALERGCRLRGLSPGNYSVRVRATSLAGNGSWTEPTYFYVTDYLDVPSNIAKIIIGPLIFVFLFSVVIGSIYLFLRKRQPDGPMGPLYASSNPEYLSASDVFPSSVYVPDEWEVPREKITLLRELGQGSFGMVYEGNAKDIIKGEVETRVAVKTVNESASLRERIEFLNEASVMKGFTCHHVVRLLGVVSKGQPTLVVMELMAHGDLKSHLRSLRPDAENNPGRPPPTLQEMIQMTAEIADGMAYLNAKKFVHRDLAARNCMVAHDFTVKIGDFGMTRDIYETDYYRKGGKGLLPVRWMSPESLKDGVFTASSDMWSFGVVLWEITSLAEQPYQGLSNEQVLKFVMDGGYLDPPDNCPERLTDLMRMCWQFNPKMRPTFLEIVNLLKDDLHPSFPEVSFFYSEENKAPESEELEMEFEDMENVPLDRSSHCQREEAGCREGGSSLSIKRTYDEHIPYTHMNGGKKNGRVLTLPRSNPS

[6] = biological target: C-C chemokine receptor type 5 (Homo sapiens, UniProt P51681); assay type: cell membranes, HEK293, Membrane; conditions: hek293; further: in other assays of this panel Not Active means under 50% inhibition at 10 µM
C-C chemokine receptor type 5, sequence (P51681 whole entry): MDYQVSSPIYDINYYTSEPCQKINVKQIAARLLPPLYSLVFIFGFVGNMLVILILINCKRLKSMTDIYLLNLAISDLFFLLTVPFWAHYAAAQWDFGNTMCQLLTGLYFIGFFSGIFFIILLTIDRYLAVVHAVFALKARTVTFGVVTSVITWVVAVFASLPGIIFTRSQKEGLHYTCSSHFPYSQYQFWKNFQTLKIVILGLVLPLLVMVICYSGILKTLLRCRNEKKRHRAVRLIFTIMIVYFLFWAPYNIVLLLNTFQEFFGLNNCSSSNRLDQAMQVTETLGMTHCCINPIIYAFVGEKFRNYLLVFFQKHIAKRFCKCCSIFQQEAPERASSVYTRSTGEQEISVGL

## C#C[C@]1(O)CC[C@H]2[C@@H]3CCc4cc(OC)ccc4[C@H]3CC[C@@]21C [MESTRANOL]
[1]
  IC50: Not Active
  Ki: Not Active
[2]
  IC50: Not Active
[3]
  IC50: Not Active
  Ki: Not Active
[4]
  IC50: Not Active
  Ki: Not Active
[5]
  IC50: Not Active
  Ki: Not Active
Nitric oxide synthase 1
  IC50: Not Active
Insulin receptor
  IC50: Not Active
[6]
  IC50: Not Active

## CC(=O)Nc1cccc(O)c1 [METACETAMOL]
[1]
  IC50: Not Active
  Ki: Not Active
[2]
  IC50: Not Active
[3]
  IC50: Not Active
  Ki: Not Active
[4]
  IC50: Not Active
  Ki: Not Active
[5]
  IC50: Not Active
  Ki: Not Active
Nitric oxide synthase 1
  IC50: Not Active
Insulin receptor
  IC50: Not Active
[6]
  IC50: Not Active

## Cc1ncc([N+](=O)[O-])n1CCO [METRONIDAZOLE]
[1]
  IC50: Not Active
  Ki: Not Active
[2]
  IC50: Not Active
[3]
  IC50: Not Active
  Ki: Not Active
[4]
  IC50: Not Active
  Ki: Not Active
[5]
  IC50: Not Active
  Ki: Not Active
Nitric oxide synthase 1
  IC50: Not Active
Insulin receptor
  IC50: Not Active
[6]
  IC50: Not Active

## CC(C)(C(=O)c1cccnc1)c1cccnc1 [METYRAPONE]
[1]
  IC50: Not Active
  Ki: Not Active
[2]
  IC50: Not Active
[3]
  IC50: Not Active
  Ki: Not Active
[4]
  IC50: Not Active
  Ki: Not Active
[5]
  IC50: Not Active
  Ki: Not Active
Nitric oxide synthase 1
  IC50: Not Active
Insulin receptor
  IC50: Not Active
[6]
  IC50: Not Active

## Oc1ccc(OCc2ccccc2)cc1 [MONOBENZONE]
[1]
  IC50: Not Active
  Ki: Not Active
[2]
  IC50: Not Active
[3]
  IC50: Not Active
  Ki: Not Active
[4]
  IC50: Not Active
  Ki: Not Active
[5]
  IC50: Not Active
  Ki: Not Active
Nitric oxide synthase 1
  IC50: Not Active
Insulin receptor
  IC50: Not Active
[6]
  IC50: Not Active

## CC(C)(Oc1ccc(C2CCCc3ccccc32)cc1)C(=O)O (stereo not given) [NAFENOPIN]
[1]
  IC50: Not Active
  Ki: Not Active
[2]
  IC50: Not Active
[3]
  IC50: Not Active
  Ki: Not Active
[4]
  IC50: Not Active
  Ki: Not Active
[5]
  IC50: Not Active
  Ki: Not Active
Nitric oxide synthase 1
  IC50: Not Active
Insulin receptor
  IC50: Not Active
[6]
  IC50: Not Active

## CC(C)[C@H]1CC[C@H](C(=O)N[C@H](Cc2ccccc2)C(=O)O)CC1 [NATEGLINIDE]
[1]
  IC50: Not Active
  Ki: Not Active
[2]
  IC50: Not Active
[3]; read-out: IC50
  IC50: 1670 nM
[3]; read-out: Ki
  Ki: 189 nM
[4]
  IC50: Not Active
  Ki: Not Active
[5]
  IC50: Not Active
  Ki: Not Active
Nitric oxide synthase 1
  IC50: Not Active
Insulin receptor
  IC50: Not Active
[6]
  IC50: Not Active

## CCN[C@@H]1C[C@H](N)[C@@H](O[C@H]2OC(CN)=CC[C@H]2N)[C@H](O)[C@H]1O[C@H]1OC[C@](C)(O)[C@H](NC)[C@H]1O [NETILMICIN]
[1]
  IC50: Not Active
  Ki: Not Active
[2]
  IC50: Not Active
[3]
  IC50: Not Active
  Ki: Not Active
[4]
  IC50: Not Active
  Ki: Not Active
[5]
  IC50: Not Active
  Ki: Not Active
Nitric oxide synthase 1
  IC50: Not Active
Insulin receptor
  IC50: Not Active
[6]
  IC50: Not Active

## CCOC(=O)C1=C(C)NC(C)=C(C(=O)OC)C1c1cccc([N+](=O)[O-])c1 (stereo not given) [NITRENDIPINE]
[1]
  IC50: Not Active
  Ki: Not Active
[2]
  IC50: Not Active
[3]
  IC50: Not Active
  Ki: Not Active
[4]
  IC50: Not Active
  Ki: Not Active
[5]
  IC50: Not Active
  Ki: Not Active
Nitric oxide synthase 1
  IC50: Not Active
Insulin receptor
  IC50: Not Active
[6]
  IC50: Not Active

## C#C[C@]1(OC(C)=O)CC[C@H]2[C@@H]3CCC4=CC(=O)CC[C@@H]4[C@H]3CC[C@@]21C [NORETHINDRONE ACETATE]
[1]
  IC50: Not Active
  Ki: Not Active
[2]
  IC50: Not Active
[3]
  IC50: Not Active
  Ki: Not Active
[4]
  IC50: Not Active
  Ki: Not Active
[5]
  IC50: Not Active
  Ki: Not Active
Nitric oxide synthase 1
  IC50: Not Active
Insulin receptor
  IC50: Not Active
[6]
  IC50: Not Active
